Reference: US20090124619A1, “NOVEL COMPOUNDS” (priority 2005, published 2009)

molecular target: T1, TRPV4 channel receptors (Bos taurus, UniProt A0A8F4X677); assay: Ca2+ influx, Fura-2 fluorescence on FlexStation in bovine articular chondrocytes; format: cell-based; settings: not given
T1 construct: obtained using this method in bovine articular chondrocytes; endogenous in cells; host or cells: bovine articular chondrocytes (primary)
Description: Ca^2+ influx mediated through TRPV4 channel receptors can be measured using articular chondrocytes from such species as, but not limited to, human, rat, canine, rabbit, monkey, and bovine, using standard techniques in the art such as, but not limited to, Fura-2 (Invitrogen/Molecular Probes, Eugene, Oreg.) fluorescence using a FlexStation (manufactured by Molecular Devices, Sunnyvale, Calif.). Table 1 lists biological data for several representative compounds obtained using this method in bovine articular chondrocytes.
(§1) All exemplary compounds of the present invention were assessed using at least one of the biological assays presented above. Compounds presented in the Examples had EC50 values of about 0.01 μM to 30 μM as measured by Flex Station using bovine articular chondrocytes and pEC50 values between about 5.0 to about 7.5 as measured by FLIPR assay using TRPV4 expressing HEK cells.

T1 sequence (A0A8F4X677 1-871): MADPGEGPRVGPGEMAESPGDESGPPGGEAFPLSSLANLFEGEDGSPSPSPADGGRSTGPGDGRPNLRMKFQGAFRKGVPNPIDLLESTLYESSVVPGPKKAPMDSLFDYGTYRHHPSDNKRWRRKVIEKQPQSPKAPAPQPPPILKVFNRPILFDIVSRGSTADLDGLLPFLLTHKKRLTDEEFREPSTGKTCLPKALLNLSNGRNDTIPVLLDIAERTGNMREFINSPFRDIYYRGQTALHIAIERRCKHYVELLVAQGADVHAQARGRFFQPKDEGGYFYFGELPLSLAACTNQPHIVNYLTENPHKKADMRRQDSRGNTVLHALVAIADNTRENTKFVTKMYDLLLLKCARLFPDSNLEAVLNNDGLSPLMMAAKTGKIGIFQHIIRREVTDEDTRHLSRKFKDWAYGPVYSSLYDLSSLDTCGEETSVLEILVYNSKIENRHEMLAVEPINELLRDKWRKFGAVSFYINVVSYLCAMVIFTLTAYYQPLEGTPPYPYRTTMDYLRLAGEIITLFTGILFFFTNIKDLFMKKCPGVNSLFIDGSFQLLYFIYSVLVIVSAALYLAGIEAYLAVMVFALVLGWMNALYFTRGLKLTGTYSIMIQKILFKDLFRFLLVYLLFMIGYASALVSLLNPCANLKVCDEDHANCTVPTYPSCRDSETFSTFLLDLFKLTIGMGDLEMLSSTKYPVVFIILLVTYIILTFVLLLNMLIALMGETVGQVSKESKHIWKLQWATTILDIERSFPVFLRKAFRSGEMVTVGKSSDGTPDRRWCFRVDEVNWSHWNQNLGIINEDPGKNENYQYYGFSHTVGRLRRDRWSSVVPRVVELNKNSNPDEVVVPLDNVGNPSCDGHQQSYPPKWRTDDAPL

Q: How did the EC50 turn out when CC[C@H](C)[C@H](NC(=O)c1cc2ccccc2s1)C(=O)NCC1CN(S(=O)(=O)c2ccccc2C#N)CCO1 (stereo partly drawn) [Example 18, N-((1S,2S)-1-{[({4-[(2-cyanophenyl)sulfonyl]-2-morpholinyl}methyl)amino]carbonyl}-2-methylbutyl)-1-benzothiophene-2-carboxamide] was run?
A: > 900 nM

Q: With CC(C)C[C@H](NC(=O)c1cc2ccccc2s1)C(=O)NC[C@@H]1CN(S(=O)(=O)c2ccccc2C#N)CCO1 [Example 21, N-((1S)-1-{[({(2R)-4-[(2-cyanophenyl)sulfonyl]-2-morpholinyl}methyl)amino]carbonyl}-3-methylbutyl)-1-benzothiophene-2-carboxamide] as the compound, how does the EC50 read?
A: 1 to 160 nM

Q: How did the EC50 turn out when CC(C)C[C@H](NC(=O)c1cc2ccccc2s1)C(=O)NC[C@H]1CN(S(=O)(=O)c2ccccc2C#N)CCO1 [Example 24, N-((1S)-1-{[({(2S)-4-[(2-cyanophenyl)sulfonyl]-2-morpholinyl}methyl)amino]carbonyl}-3-methylbutyl)-1-benzothiophene-2-carboxamide] was run?
A: 160 to 900 nM

molecular target: T2, TRPV4 (Homo sapiens, UniProt Q9HBA0); assay: FLIPR assay using TRPV4 expressing HEK cells; format: cell-based; settings: FLIPR method; pEC50 = −log10(EC50 μM)
T2 construct: expressed in transfected cells; host or cells: HEK cells
T2 sequence (Q9HBA0 whole entry): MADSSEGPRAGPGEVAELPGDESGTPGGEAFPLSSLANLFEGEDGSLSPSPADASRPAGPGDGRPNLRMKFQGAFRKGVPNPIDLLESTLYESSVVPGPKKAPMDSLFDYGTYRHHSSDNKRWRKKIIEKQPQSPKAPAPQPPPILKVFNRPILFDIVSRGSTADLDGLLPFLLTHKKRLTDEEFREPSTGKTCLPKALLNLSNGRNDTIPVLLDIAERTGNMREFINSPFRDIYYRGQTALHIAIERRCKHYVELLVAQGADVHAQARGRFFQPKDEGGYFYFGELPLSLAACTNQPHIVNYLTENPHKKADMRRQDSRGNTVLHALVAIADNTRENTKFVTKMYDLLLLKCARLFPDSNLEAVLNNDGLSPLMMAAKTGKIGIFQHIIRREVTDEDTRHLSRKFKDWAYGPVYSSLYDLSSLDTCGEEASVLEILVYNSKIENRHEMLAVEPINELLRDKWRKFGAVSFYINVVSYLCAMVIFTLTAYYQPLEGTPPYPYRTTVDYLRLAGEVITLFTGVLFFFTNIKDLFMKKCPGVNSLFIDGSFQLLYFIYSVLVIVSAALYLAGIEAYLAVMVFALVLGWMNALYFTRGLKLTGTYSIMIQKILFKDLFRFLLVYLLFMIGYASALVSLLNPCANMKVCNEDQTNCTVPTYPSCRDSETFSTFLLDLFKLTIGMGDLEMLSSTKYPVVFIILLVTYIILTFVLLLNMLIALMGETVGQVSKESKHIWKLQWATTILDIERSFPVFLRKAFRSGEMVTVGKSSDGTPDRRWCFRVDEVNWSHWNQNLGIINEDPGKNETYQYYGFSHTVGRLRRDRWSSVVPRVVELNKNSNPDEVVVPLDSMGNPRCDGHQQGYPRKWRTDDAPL
Description: Other techniques used to measure TRPV4 channel receptor activation in chondrocytes include, but are not limited to: FLIPR assay, measuring a compound's capability to reduce the amount of ADAMTSs produced and/or released in response to a catabolic stimulus by a cell comprising a TRPV4 channel receptor; measuring a compound's capability to reduce the amount of MMPs produced and/or released in response to a catabolic stimulus by a cell comprising a TRPV4 channel receptor; measuring a compound's capability to effect the amount of nitric oxide (NO) produced in response to a catabolic stimulus by a cell comprising a TRPV4 channel receptor; and measuring a compound's capability to attenuate the inhibition of matrix synthesis in response to a catabolic stimulus by a cell comprising a TRPV4 channel receptor.
as §1

Q: For CC(C)C[C@H](NC(=O)c1cc2ccccc2s1)C(=O)NCC1CN(S(=O)(=O)c2ccc(Cl)cc2Cl)CCO1 (stereo partly drawn) [Example 14, N-((1S)-1-{[({4-[(2,4-dichlorophenyl)sulfonyl]-2-morpholinyl}methyl)amino]carbonyl}-3-methylbutyl)-1-benzothiophene-2-carboxamide], which EC50 is on record?
A: ≤ 0.1 µM

Q: Which EC50 does the source give for CC(C)[C@H](NC(=O)CCC1CCCC1)C(=O)NCC1CN(S(=O)(=O)c2ccccc2C#N)CCO1 (stereo partly drawn) [Example 44, N1-({4-[(2-cyanophenyl)sulfonyl]-2-morpholinyl}methyl)-N2-(3-cyclopentylpropanoyl)-L-valinamide] here?
A: 0.1 to 1.12 µM

Q: How did the EC50 turn out when O=C(CCC1CCCC1)N[C@H](C(=O)NCC1CN(S(=O)(=O)c2ccc(Cl)cc2Cl)CCO1)c1ccccc1 (stereo partly drawn) [Example 60, 3-cyclopentyl-N-{(1S)-2-[({4-[(2,4-dichlorophenyl)sulfonyl]-2-morpholinyl}methyl)amino]-2-oxo-1-phenylethyl}propanamide] was run?
A: 1.12 to 10 µM
